Laboratory results taken from ChEMBL document CHEMBL1136572, “Piperazine-based CCR5 antagonists as HIV-1 inhibitors. III: synthesis, antiviral and pharmacokinetic profiles of symmetrical heteroaryl carboxamides” (Bioorg Med Chem Lett, 2003).
Blank lines part the entries; values can stand above or below the molecule they belong to.

How the values were obtained:
[1] = Ratio of AUCbrain to AUCplasma; format: ADME, organism-based; conditions: rat, brain and plasma
[2] = Compound was tested for inhibition of HIV isolate ASM 108 (wt) in peripheral blood mononuclear cells (PBMC); format: functional
[3] = Cmax value evaluated in rat; format: ADME, organism-based; conditions: in vivo
[4] = Compound was tested for inhibition of HIV isolate YU-2 (wt) in peripheral blood mononuclear cells (PBMC); format: functional
[5] = Oral bioavailability evaluated in rat; format: ADME, organism-based; conditions: in vivo
[6] = Compound was tested for inhibition of HIV isolate US-1 in peripheral blood mononuclear cells (PBMC); format: functional
[7] = Compound was tested for inhibition of HIV isolate 301657 (hz) in peripheral blood mononuclear cells (PBMC); format: functional
[8] = Compound was tested for inhibition of HIV isolate BCF01 in peripheral blood mononuclear cells (PBMC); format: functional
[9] = Compound was tested for inhibition of HIV isolate 301657 (wt) in peripheral blood mononuclear cells (PBMC); format: functional
[10] = Cmax value evaluated in monkey; format: ADME, organism-based; conditions: cercopithecidae, in vivo
[11] = Compound was tested for inhibition of HIV isolate bal (hz) in peripheral blood mononuclear cells (PBMC); format: functional
[12] = molecular target: T1, Muscarinic acetylcholine receptor M2 (Homo sapiens, UniProt P08172); experiment: Binding affinity towards muscarinic receptor M2
T1 sequence (P08172 whole entry): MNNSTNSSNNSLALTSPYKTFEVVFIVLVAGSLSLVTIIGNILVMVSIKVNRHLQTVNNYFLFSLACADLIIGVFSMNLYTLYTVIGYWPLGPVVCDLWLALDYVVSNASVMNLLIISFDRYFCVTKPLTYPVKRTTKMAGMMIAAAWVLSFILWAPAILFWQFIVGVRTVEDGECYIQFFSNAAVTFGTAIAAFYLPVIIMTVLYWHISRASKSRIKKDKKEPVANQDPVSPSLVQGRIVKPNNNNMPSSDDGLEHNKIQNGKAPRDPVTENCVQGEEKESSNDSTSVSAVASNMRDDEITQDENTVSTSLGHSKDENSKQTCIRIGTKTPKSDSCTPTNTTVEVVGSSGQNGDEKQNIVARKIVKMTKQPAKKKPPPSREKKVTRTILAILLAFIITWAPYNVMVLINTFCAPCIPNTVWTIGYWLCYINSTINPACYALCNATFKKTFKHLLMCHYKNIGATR

[13] = Compound was tested for inhibition of HIV isolate YU-2 (hz) in peripheral blood mononuclear cells (PBMC); format: functional
[14] = tested on: U-87 MG; experiment: Tested for inhibiting HIV (ADA) entry into cells; format: functional, cell-based, U-87MG ATCC; conditions: Homo sapiens
[15] = Oral bioavailability evaluated in monkey; format: ADME, organism-based; conditions: cercopithecidae, in vivo
[16] = molecular target: T1, Muscarinic acetylcholine receptor M2; experiment: Inhibition of binding affinity to muscarinic receptor M2
[17] = Compound was tested for inhibition of HIV isolate JV 1083 in peripheral blood mononuclear cells (PBMC); format: functional
[18] = Compound was tested for inhibition of HIV isolate ASM 108 (hz) in peripheral blood mononuclear cells (PBMC); format: functional
[19] = molecular target: C-C chemokine receptor type 5 (Homo sapiens, UniProt P51681); experiment: Ability to inhibit [125I]-labeled RANTES binding to the CCR5 receptor expressed in membrane preparations from CHO cells; format: cell membranes
Chain of C-C chemokine receptor type 5 (P51681 whole entry): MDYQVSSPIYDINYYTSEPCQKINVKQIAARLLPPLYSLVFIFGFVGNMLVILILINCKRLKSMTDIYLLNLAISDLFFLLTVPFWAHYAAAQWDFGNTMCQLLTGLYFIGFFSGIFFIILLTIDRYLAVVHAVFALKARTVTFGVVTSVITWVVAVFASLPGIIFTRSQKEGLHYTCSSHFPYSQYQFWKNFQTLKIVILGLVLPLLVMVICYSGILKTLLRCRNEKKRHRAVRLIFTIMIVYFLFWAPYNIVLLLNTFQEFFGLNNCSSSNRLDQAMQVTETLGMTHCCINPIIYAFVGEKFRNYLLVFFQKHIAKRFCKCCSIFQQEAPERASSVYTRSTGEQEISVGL

[20] = tested on: Rattus norvegicus; experiment: Dose required for observing CNS and GI effects in rats after peroral administration; format: functional
[21] = tested on: Rattus norvegicus; experiment: Dose required for observing cardiovascular effects in rats after peroral administration; format: functional, Heart
[22] = tested on: U-87 MG; experiment: Compound was tested for inhibiting HIV (ADA) entry into U-87 cells; range is 2-20 nM; format: functional, cell-based, U-87MG ATCC; conditions: Homo sapiens
[23] = tested on: BaF3; experiment: Inhibition of 0.1 nM of MIP-1beta induced migration of recombinant mouse pro-B cell line BA/F3 expressing human CCR5; format: functional, cell-based
[24] = molecular target: T2, Muscarinic acetylcholine receptor M1 (Homo sapiens, UniProt P11229); experiment: Binding affinity towards muscarinic receptor M1
T2 sequence (P11229 whole entry): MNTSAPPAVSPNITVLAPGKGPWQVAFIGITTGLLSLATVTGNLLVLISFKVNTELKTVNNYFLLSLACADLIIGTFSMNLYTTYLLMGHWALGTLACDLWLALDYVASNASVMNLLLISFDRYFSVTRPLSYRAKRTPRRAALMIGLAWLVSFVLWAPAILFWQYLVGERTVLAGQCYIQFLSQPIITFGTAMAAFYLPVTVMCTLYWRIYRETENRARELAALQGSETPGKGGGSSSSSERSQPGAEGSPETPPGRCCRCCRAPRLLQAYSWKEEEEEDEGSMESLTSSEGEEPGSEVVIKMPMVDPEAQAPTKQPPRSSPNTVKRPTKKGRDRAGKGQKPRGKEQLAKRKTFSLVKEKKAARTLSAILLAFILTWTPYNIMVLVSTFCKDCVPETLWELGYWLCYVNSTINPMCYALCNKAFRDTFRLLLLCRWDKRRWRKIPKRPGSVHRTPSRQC

[25] = tested on: U-87 MG; experiment: Compound was tested for inhibiting HIV (ADA) entry into cells; Range is 0.2-2.0 nM; format: functional, cell-based, U-87MG ATCC; conditions: Homo sapiens

Compound: Cc1ncnc(C)c1C(=O)N1CCC(C)(N2CCN([C@@H](C)c3ccc(C(F)(F)F)cc3)[C@@H](C)C2)CC1
Kp [1]: 1.7 | IC50 [2]: 7 nM | IC90 ([2]; Human immunodeficiency virus 1): 17 nM | Cmax [3]: 1490 ng/mL | IC50 [4]: 2.3 nM | IC90 ([4]; Human immunodeficiency virus 1): 8 nM | bioavailability [5]: 97% | IC50 [6]: 0.7 nM | IC90 ([6]; Human immunodeficiency virus 1): 4 nM | IC50 [7]: 26.8 nM | IC90 ([7]; Human immunodeficiency virus 1): > 1000 nM | IC50 [8]: 200 nM | IC90 ([8]; Human immunodeficiency virus 1): > 1000 nM | IC50 [9]: 3.2 nM | IC90 ([9]; Human immunodeficiency virus 1): 24 nM | Cmax [10]: 340 ng/mL | IC50 [11]: 6.4 nM | IC90 ([11]; Human immunodeficiency virus 1): 60 nM | Ki [12]: 456 nM | IC50 [13]: 1.3 nM | IC90 ([13]; Human immunodeficiency virus 1): 100 nM | IC50 [14]: 0.5 nM | bioavailability [15]: 50% | Ki [16]: 456 nM | IC50 [17]: 166 nM | IC90 ([17]; Human immunodeficiency virus 1): > 300 nM | IC50 [18]: 0.2 nM | IC90 ([18]; Human immunodeficiency virus 1): 3 nM

Compound: Cc1ncnc(C)c1C(=O)N1CCC(C)(N2CCN([C@@H](C)c3ccc(OC(F)(F)F)cc3)[C@@H](C)C2)CC1
Ki [12]: 68 nM | IC50 [14]: 1.2 nM | Ki [19]: 11 nM

Ki [12]: 1100 nM | Ki [19]: 38 nM
Compound: Cc1nc(N)nc(C)c1C(=O)N1CCC(C)(N2CCN([C@@H](C)c3ccc(C(F)(F)F)cc3)[C@@H](C)C2)CC1

Compound: Cc1cc[n+]([O-])c(C)c1C(=O)N1CCC(C)(N2CCN([C@@H](C)c3ccc(C(F)(F)F)cc3)[C@@H](C)C2)CC1
Dose [20]: 30 mg/kg | Dose [21]: 10 mg/kg | IC50 [22]: 2 nM | IC50 [23]: 0.1 nM | Ki [24]: 350 nM

Ki [12]: 202 nM | Ki [19]: 11 nM
Compound: COc1nc(C)c(C(=O)N2CCC(C)(N3CCN([C@@H](C)c4ccc(C(F)(F)F)cc4)[C@@H](C)C3)CC2)c(C)n1

Compound: Cc1nc(C)c(C(=O)N2CCC(C)(N3CCN([C@@H](C)c4ccc(C(F)(F)F)cc4)[C@@H](C)C3)CC2)c(C)n1
Ki [12]: 985 nM | IC50 [14]: 1.45 nM | Ki [19]: 10 nM

Ki [12]: 169 nM | Ki [19]: 11 nM
Compound: Cc1ncnc(C)c1C(=O)N1CCC(C)(N2CCN([C@@H](C)c3ccc(I)cc3)[C@@H](C)C2)CC1

Compound: Cc1ncnc(C)c1C(=O)N1CCC(C)(N2CCN([C@@H](C)c3ccc(C#N)cc3)[C@@H](C)C2)CC1
Ki [12]: 164 nM | IC50 [14]: 1.8 nM | Ki [19]: 20 nM

Ki [12]: 1680 nM | Ki [19]: 5.23 nM
Compound: Cc1cncc(C)c1C(=O)N1CCC(C)(N2CCN([C@@H](C)c3ccc(C(F)(F)F)cc3)[C@@H](C)C2)CC1

Compound: C[C@H]1CN(C2(C)CCN(C(=O)c3c(Cl)cncc3Cl)CC2)CCN1[C@@H](C)c1ccc(C(F)(F)F)cc1
Ki [12]: 2030 nM | IC50 [14]: 0.3 nM | Ki [19]: 0.7 nM

Compound: Cc1c[n+]([O-])cc(C)c1C(=O)N1CCC(C)(N2CCN([C@@H](C)c3ccc(C(F)(F)F)cc3)[C@@H](C)C2)CC1
Ki [12]: 255 nM | IC50 [14]: 0.9 nM | Ki [19]: 18 nM

Compound: C[C@H]1CN(C2(C)CCN(C(=O)c3c(Cl)c[n+]([O-])cc3Cl)CC2)CCN1[C@@H](C)c1ccc(C(F)(F)F)cc1
Ki [12]: 348 nM | IC50 [14]: 0.45 nM | Ki [19]: 2.7 nM

Compound: Cc1nc(-c2ccccc2)nc(C)c1C(=O)N1CCC(C)(N2CCN([C@@H](C)c3ccc(C(F)(F)F)cc3)[C@@H](C)C2)CC1
Ki [12]: 1230 nM | IC50 [14]: 1.8 nM | Ki [19]: 12 nM

Compound: Cc1nc(C(F)(F)F)nc(C)c1C(=O)N1CCC(C)(N2CCN([C@@H](C)c3ccc(C(F)(F)F)cc3)[C@@H](C)C2)CC1
Ki [12]: 613 nM | IC50 [14]: 0.1 nM | Ki [19]: 10 nM

Compound: Cc1ccnc(C)c1C(=O)N1CCC(C)(N2CCN([C@@H](C)c3ccc(C(F)(F)F)cc3)[C@@H](C)C2)CC1
Ki [19]: 2 nM | IC50 [25]: 0.2 nM | IC50 [23]: 0.03 nM
